“And” between values parts separate entries of the source, which are not always exact repeats. Equal entries are not always repeated.
Assays:
[1] = system: lysyl oxidase family members in KPC CAFs; experiment: qRT-PCR of lysyl oxidase family members after treatment (Extended Data Figs. 2d, 3h); assay type: cell-based, mouse; parameters: qRT-PCR LOX (Ct) / qRT-PCR LOX ΔCt / qRT-PCR LOX ΔΔCt KPC CAF / qRT-PCR LOXL1 ΔCt / qRT-PCR LOXL1 ΔΔCt KPC CAF / qRT-PCR LOXL2 ΔCt / qRT-PCR LOXL2 ΔΔCt KPC CAF / qRT-PCR LOXL3 ΔCt / qRT-PCR LOXL3 ΔΔCt KPC CAF / qRT-PCR LOXL4 ΔCt / qRT-PCR LOXL4 ΔΔCt KPC CAF: dose or concentration left out as unconfirmed;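 as to qRT-PCR LOX ΔCt: 30 µM PXS-5505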;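 as to qRT-PCR LOXL2 ΔCt: 30 µM PXS-5505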;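 as to qRT-PCR LOXL3 ΔCt: 30 µM PXS-5505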;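 as to qRT-PCR LOXL4 ΔCt: 30 µM PXS-5505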
Protocol: RNA was isolated using the RNeasy mini kit (QIAGEN) according to the manufacturer’s instructions. Then, 1 μg of RNA was reverse transcribed using the Transcriptor First Strand cDNA Synthesis kit (Roche LifeScience) with anchored-oligo(dT)18 primers or the QuantiTect Reverse Transcription kit (QIAGEN). Real-time PCR was performed using the Roche LightCycler480 (Roche LifeScience) or QuantStudio 7 (Thermo Fisher). The following probe sets from Applied Biosystems, were used: LOX, Mm00495386; LOXL1, Mm01145738; LOXL2, Mm00804740; LOXL3, Mm01184867; LOXL4, Mm00446385; and GAPDH, Mm99999915. Primers and Roche Universal Probe Library probes used for RT–qPCR are described in Supplementary Table 4. Relative mRNA expression levels for each transcript of interest were normalized to GAPDH or ACTB (as indicated) and quantified using the comparative double ΔCt method (unless stated otherwise) for each biological replicate.
Extended Data Fig. 2 Characterization of cells derived from the KPC autochthonous model. a. Immunofluorescence staining of KPC CCs and KPC CAFs for the pancreatic epithelial cell marker CDH1 (green), DAPI (blue) and for the CAF marker α-SMA (yellow), DAPI (blue). Representative images from n = 3 biological independent samples. Scale bar = 30 μm. b. RNAseq reads for CAF and epithelial cell makers in KPC CAFs n = 3 biological independent samples. […] Data is presented as mean values ± SEM. […] Data presented as mean values +/− SD. […] Source data
Data presented as mean values +/− SD. f. […] Data presented as mean values +/− SD. […] Data presented as mean values +/− SD. […] Data presented as mean values +/− SD. Ordinary one-way ANOVA for multiple comparison test performed. Source data

KPC PDAC tumors = experiment: FITC-dextran (10 kDa) perfusion imaging, KPC tumors; assay type: in vivo, mouse; conditions: for FITC-dextran (10 kDa) signal quantification: Extended Data 5C, KPC tumour endpoint, individual FOV, 5xFOV per tumour
Protocol: FITC-dextran (10 kDa) was administered at 40 mg ml^−1 in saline via tail vain 2 h before culling. Excised tumors were flash-frozen in OCT and cryosectioned at 14 μm. Sections were counterstained with 4,6-diamidino-2-phenylindole (DAPI) and images were collected using a Leica DMI5500 (×40 magnification). Images were quantified using Fiji Software for Integrated Density Signal.
Extended Data Fig. 5 PXS-5505 in combination with gemcitabine in vivo. a. […] Signal is defined as the enzyme activity in the aorta, while noise is measured in the presence of a high concentration (300 µM) BAPN to abolish any lysyl oxidase family activity. […] Data presented as mean values +/− SD b. […] Data presented as mean values +/− SD. c. FITC-dextran (molecular weight: 10 kDa) signal quantification from KPC tumor end point from each treatment group (vehicle n = 3 biologically independent animals, PXS-5505 n = 5 biologically independent animals, Gem n = 5 biologically independent animals, PXS-5505 + Gem n = 5 biologically independent animals). […] P-values determined by Welchs t-test. Data presented as mean values +/− SD. Scale bars = 100 μm d. Quantification of red birefringent (mature) collagen fibers from human PDXs at end point after 3 cycles of treatment, treated as indicated. […] Quantification of bulk modulus (stiffness) by unconfined compression testing of end point human PDX tumors from each treatment group (vehicle n = 5 biologically independent animals, Gem n = 5 biologically independent animals, PXS-5505 n = 5 biologically independent animals, PXS-5505 + Gem n = 5 biologically independent animals) [individual tumors shown]). […] FITC-dextran (molecular weight 10 kDa) signal quantification from human PDXs from each treatment group (vehicle n = 4 biologically independent animals, PXS-5505 n = 5 biologically independent animals, Gem n = 5 biologically independent animals, PXS-5505 + Gem n = 5 biologically independent animals). […] P values determined by Welchs t-test. g. […] Quantification of green birefringent (nascent) collagen fibers from human PDXs at end point, treated as indicated. […]

[2] = 50 nM gemcitabine, 48 hours, per replicate
[3] = 50 nM gemcitabine, 48 hours, vs GAPDH, per replicate
[4] = 48 hour treatment, 30 M PXS-5505, replicates
[5] = 48 hour treatment, PXS-5505, replicates
[6] = 48 hour treatment, PXS-5505, vs GAPDH, replicates

Compound: Nc1ccn([C@@H]2O[C@H](CO)[C@@H](O)C2(F)F)c(=O)n1 [Gem, gemcitabine]
- expression of lysyl oxidase family members ([1]; 50 nM gemcitabine for 48 hours): increased
- LOX ΔΔCt CC [1, 2]: 1.655 and 2.327 and 2.145
- LOXL1 ΔΔCt CC [1, 2]: 1.866 and 1.895 and 1.813
- LOXL2 ΔΔCt CC [1, 2]: 2.3261 and 2.2233 and 1.33
- LOXL3 ΔΔCt CC [1, 2]: 1.66 and 2.86 and 2.05
- LOXL4 ΔΔCt CC [1, 2]: 2.014 and 1.617 and 1.18
- LOX ΔCt [1, 3]: 6.157 and 5.668 and 5.782
- LOXL1 ΔCt [1, 3]: 8.043 and 8.021 and 8.085
- LOXL2 ΔCt [1, 3]: 4.354 and 4.419 and 5.16
- LOXL3 ΔCt [1, 3]: 4.977 and 5.26 and 5.74
- LOXL4 ΔCt [1, 3]: 6.2696 and 6.5867 and 7.04
- FITC-dextran (10 kDa) signal quantification (KPC PDAC tumors): 60068 and 66083 and 67045 and 264388 and 103749 and 136715 and 44993 and 342971 and 570220 and 195046 and 425899 and 308368 and 729076 and 598797 and 690249 and 193339 and 215616 and 99212 and 74761 and 57841
- FITC-dextran signal (tumor perfusion) (KPC PDAC tumors; KPC tumors at end point): significantly reduced FITC signal

Compound: Cl.Cl.NC/C=C(\F)CS(=O)(=O)c1cccc2cccnc12.O [PXS-5505, (Z)-3-fluoro-4-(quinolin-8-ylsulfonyl)but-2-en-1-amine dihydrochloride monohydrate]
- qRT-PCR LOXL1 (Ct) [1, 4]: 27.9242 and 27.0668
- qRT-PCR LOXL2 (Ct) [1, 4]: 25.5976 and 25.3053 and 25.9273
- qRT-PCR LOXL3 (Ct) [1, 4]: 27.0409 and 26.0554 and 26.3059
- qRT-PCR LOXL4 (Ct) [1, 4]: 27.6755 and 27.1763 and 27.4097
- qRT-PCR LOX (Ct) [1, 5]: 27.9362 and 27.041 and 26.9697
- qRT-PCR LOX ΔΔCt KPC CAF [1, 5]: 0.4495 and 1.003 and 0.5566
- qRT-PCR LOXL1 ΔΔCt KPC CAF [1, 5]: 0.5108 and 0.4889 and 0.4223
- qRT-PCR LOXL2 ΔΔCt KPC CAF [1, 5]: 0.6912 and 0.4472 and 0.4586
- qRT-PCR LOXL3 ΔΔCt KPC CAF [1, 5]: 0.6435 and 0.6732 and 0.893
- qRT-PCR LOXL4 ΔΔCt KPC CAF [1, 5]: 1.222 and 0.9127 and 1.225
- qRT-PCR LOX ΔCt [1, 6]: 9.054 and 7.896 and 8.745
- qRT-PCR LOXL1 ΔCt [1, 6]: 8.779 and 8.842
- qRT-PCR LOXL2 ΔCt [1, 6]: 6.453 and 7.081 and 7.045
- qRT-PCR LOXL3 ΔCt [1, 6]: 7.896 and 7.831 and 7.423
- qRT-PCR LOXL4 ΔCt [1, 6]: 8.531 and 8.952 and 8.527
- transcription of lysyl oxidase family members ([1]; PXS-5505 up to 300 µM): does not significantly alter transcription
- FITC-dextran (10 kDa) signal quantification (KPC PDAC tumors): 643536 and 877109 and 855018 and 639402 and 1028780 and 1101294 and 1096543 and 614729 and 1678517 and 411292 and 888855 and 96222 and 332580 and 192955 and 224263 and 475860 and 248857 and 803743 and 104073 and 736895

— PMC10518255, “A first-in-class pan-lysyl oxidase inhibitor impairs stromal remodeling and enhances gemcitabine response and survival in pancreatic cancer” (Nature Cancer, 2023)
